Structures can show the parent of a compound that is named as a salt.
What was measured:
[1] = test system: Caenorhabditis elegans N2; assay: mean nematode size ln(EXT) after 48 h, plate-adjusted (DMSO control set to 6) (ln(EXT), control-adjusted); higher = larger nematodes / less growth inhibition; details: exposure time 48 h
Outline: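 C. elegans N2 larvae, synchronised at L1, grew for 48 h at 20°C in K-medium with killed OP50, 1% DMSO and 0.5–200 µM chemical. Mean size per well was derived from natural-logged Biosort extinction after a growth model removed debris. Adjustment across plates involved subtracting the vehicle control mean and adding 6.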

[2] = test system: Caenorhabditis elegans N2; assay: lowest effective concentration for larval growth inhibition (size below effect threshold); higher = less potent; details: exposure time 48 h
Outline: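 Each well of a 96-well plate received 50 C. elegans N2 L1 larvae, which grew for 48 h at 20°C in K-medium containing killed bacteria, 1% DMSO and the chemical at 0.5, 1, 5, 10, 50, 100 or 200 µM. A Biosort recorded the extinction of every worm as its size, and these readings were log-transformed and averaged per well. The lowest effective concentration is defined as the first dose at which the plate-adjusted mean size falls below the threshold and stays below it at all higher doses; that threshold is 5.665.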

Compound	mean nematode size ln(EXT) (ln) ([1]; 0.5 µM)	mean nematode size ln(EXT) (ln) ([1]; 1 µM)	mean nematode size ln(EXT) (ln) ([1]; 5 µM)	mean nematode size ln(EXT) (ln) ([1]; 10 µM)	mean nematode size ln(EXT) (ln) ([1]; 50 µM)	mean nematode size ln(EXT) (ln) ([1]; 100 µM)	mean nematode size ln(EXT) (ln) ([1]; 200 µM)	lowest effective concentration [2]
O=[N+]([O-])c1ccc(O)cc1 [Sodium p-nitrophenolate]	5.95	5.97	5.92	5.98	6.15	5.81	5.87	> 200 µM
O=C(O)c1c(Cl)ccc2cc(Cl)cnc12 [Quinclorac]	5.97	6.03	6.03	5.99	5.97	6.07	5.76	> 200 µM
Cc1ccc(O)cc1 [4-Methylphenol]	5.84	5.98	5.92	5.87	5.96	5.8	5.83	> 200 µM
CCOCCOC(C)=O [2-Ethoxyethyl acetate]	6.11	6.11	6.07	6.08	6.07	6.04	6.57	> 200 µM
O=C1CCCO1 [4-Butyrolactone]	6.1	6.08	6	6.1	6.09	6.02	5.81	> 200 µM
Oc1cccc(O)c1 [Resorcinol]	5.81	5.86	5.94	5.84	5.88	5.84	5.78	> 200 µM
CN(C)C(=O)NC1(c2ccccc2)CCN(CCCC2(c3ccc(Cl)c(Cl)c3)CCCN(C(=O)c3ccccc3)C2)CC1 (stereo in doubt)	5.96	5.67	5.69	5.74	5.62	5.35	5.63	50 µM
O=C(O)C(F)(F)C(F)(F)C(F)(F)C(F)(F)C(F)(F)F [Perfluorohexanoic acid]	5.47	5.55	5.6	5.67	5.69	5.73	5.86	> 200 µM
Cc1ccc([N+](=O)[O-])cc1 [4-Nitrotoluene]	5.99	5.92	5.98	5.85	5.94	5.95	5.77	> 200 µM
CCCCCCCCCC [Decane]	5.95	5.8	5.91	5.8	5.87	5.83	5.75	> 200 µM
Oc1cc(Cl)c(Cl)cc1Cl [2,4,5-Trichlorophenol]	5.83	5.83	5.83	5.78	5.77	3.41	5.81	> 200 µM
CC(Cl)(Cl)C(=O)O [Dalapon]	5.78	6.06	6.05	6.04	5.95	5.93	5.79	> 200 µM
O=C(OCCOCCOC(=O)c1ccccc1)c1ccccc1 [Di(ethylene glycol) dibenzoate]	5.89	5.82	5.77	5.76	5.71	5.79	5.66	200 µM
O=C1NS(=O)(=O)c2ccccc21.[Na] [Saccharin sodium salt hydrate]	5.88	5.93	5.96	5.9	5.89	5.9	5.79	> 200 µM
O=C(O)c1cc(/N=N/c2ccc(S(=O)(=O)Nc3ccccn3)cc2)ccc1O [Sulfasalazine]	5.85	5.91	5.87	5.87	5.92	5.9	5.94	> 200 µM
CCC(C)=NO [2-Butanone oxime]	5.68	5.89	6.05	5.8	5.82	5.68	6.2	> 200 µM
CNC(=O)CSP(=S)(OC)OC [Dimethoate]	6.23	6.15	6.18	6.23	6.24	6.21	5.95	> 200 µM
COCCO [Methyl cellusolve]	5.86	5.94	6.08	6.07	5.99	6.03	6.06	> 200 µM
C[C@](N)(Cc1ccc(O)c(O)c1)C(=O)O [(-)-3-(3,4-Dihydroxyphenyl)-2-methyl-L-alanine sesquihydrate]	5.88	5.88	5.89	5.89	5.88	5.87	5.85	> 200 µM
CC(C)(C)c1ccc(O)cc1 [4-tert-Butylphenol]	5.86	5.91	5.92	5.94	5.91	5.81	5.71	> 200 µM
N#C/N=C1\SCCN1Cc1ccc(Cl)nc1 [Thiacloprid]	5.99	5.88	5.94	5.96	5.96	5.89	5.81	> 200 µM
CCCCCCOC(=O)CC(CC(=O)OCCCCCC)(OC(=O)CCC)C(=O)OCCCCCC [N-Butyryl tri-N-hexyl citrate]	5.93	5.96	5.91	5.98	6.15	5.75	5.83	> 200 µM
CCOP(=O)(OCC)Oc1cc(C)nc(C(C)C)n1 [Diazoxon]	6.19	6.09	6.08	6.06	6.05	6.1	5.93	> 200 µM
Clc1ccccc1-c1nnc(-c2ccccc2Cl)nn1 [Clofentezine]	6.25	6.03	6.11	5.96	5.86	5.98	5.73	> 200 µM
CCC(C)(CC)c1cc(NC(=O)c2c(OC)cccc2OC)on1 [Isoxaben]	5.88	5.93	6.01	6.02	5.92	6.03	5.93	> 200 µM
COS(C)(=O)=O [Methyl methanesulfonate]	5.92	5.9	5.9	5.87	5.81	5.52	5.89	> 200 µM
CC(CO)OC(C)CO.CC(O)COCC(C)O (configuration not stated) [Dipropylene glycol]	5.74	5.73	5.79	5.87	5.74	5.66	5.87	> 200 µM

Compound	mean nematode size ln(EXT) (ln) ([1]; 0.5 µM)	mean nematode size ln(EXT) (ln) ([1]; 1 µM)	mean nematode size ln(EXT) (ln) ([1]; 5 µM)	mean nematode size ln(EXT) (ln) ([1]; 10 µM)	mean nematode size ln(EXT) (ln) ([1]; 50 µM)	mean nematode size ln(EXT) (ln) ([1]; 100 µM)	mean nematode size ln(EXT) (ln) ([1]; 200 µM)	lowest effective concentration [2]
OCCNCCO [Diethanolamine]	6.04	6.05	6.04	6.02	6.1	6.07	5.79	> 200 µM
Cc1cccc(C)c1O [2,6-Dimethylphenol]	5.9	5.89	5.89	5.78	5.88	5.65	5.82	> 200 µM
CCOC(=O)c1ccccc1C(=O)OCC [Diethyl phthalate]	5.92	5.85	5.82	5.76	5.94	5.81	5.79	> 200 µM
Oc1ccccc1O [Catechol]	5.94	5.82	5.86	5.84	5.9	5.95	5.72	> 200 µM
COc1ccc(-c2ccccc2)cc1NNC(=O)OC(C)C [Bifenazate]	5.62	5.82	5.8	5.93	5.25	5.68	5.87	> 200 µM
Clc1cccc(Cl)c1 [1,3-Dichlorobenzene]	5.9	5.89	5.87	5.96	5.99	5.99	5.79	> 200 µM
COCC(C)OCC(C)OCC(C)O (configuration not stated) [Tripropylene glycol monomethyl ether]	5.71	6.01	5.88	5.89	5.91	5.9	5.72	> 200 µM
Cc1ccc(O)c(C)c1 [2,4-Dimethylphenol]	5.82	5.97	5.96	5.87	5.85	5.84	5.72	> 200 µM
OC(CCl)CCl [1,3-Dichloro-2-propanol]	5.88	5.83	5.8	5.82	5.8	5.48	5.88	> 200 µM
CCCCC(CC)COC(=O)c1ccccc1C(=O)O (configuration not stated) [Phthalic acid, mono-2-ethylhexyl ester]	5.83	5.76	5.77	6.08	6.11	6.44	5.88	> 200 µM
CCCCCC(=O)O [Hexanoic acid]	5.99	5.88	5.83	5.84	5.83	5.87	5.79	> 200 µM
O=[N+]([O-])C(CO)(CO)CO [Tris(hydroxymethyl)nitromethane]	5.91	5.9	5.92	5.75	5.92	5.89	5.75	> 200 µM
CC[C@H](C)C(=O)O[C@H]1C[C@H](O)C=C2C=C[C@H](C)[C@H](CC[C@@H](O)C[C@@H](O)CC(=O)O)[C@H]21 [Pravastatin sodium]	5.99	5.97	5.93	5.92	5.91	5.79	5.81	> 200 µM
COc1c(Cl)ccc(Cl)c1C(=O)O [Dicamba]	5.78	5.92	5.72	5.98	6.18	6.37	6.03	> 200 µM
O=C(O)C(Cl)(Cl)Cl [Trichloroacetic acid]	5.84	5.85	5.86	5.91	5.89	5.91	5.67	> 200 µM
O=c1[nH]cnc2c1ncn2[C@H]1CC[C@@H](CO)O1 [Didanosine]	5.88	5.86	5.85	5.84	5.89	5.96	5.76	> 200 µM
CCOCCOCCO [Diethylene glycol monoethyl ether]	6.02	6.03	6.07	6.05	6.03	6.06	5.76	> 200 µM
Nc1nc(Cl)nc2c1ncn2[C@H]1C[C@H](O)[C@@H](CO)O1 [2-Chloro-2'-deoxyadenosine]	5.92	5.87	5.91	5.87	5.88	5.88	5.7	> 200 µM
CCN(CC)CCO [N,N-Diethylethanolamine]	5.86	5.89	5.91	5.81	5.83	5.76	5.78	> 200 µM
Nc1nc(N)nc(NC2CC2)n1 [Cyromazine]	5.45	5.67	5.56	5.57	5.42	6.14	5.94	> 200 µM
CCC(C)c1ccccc1O (configuration not stated) [2-(Butan-2-yl)phenol]	5.9	5.85	5.89	5.94	5.86	5.82	5.7	> 200 µM
Cc1ccc(C)c(O)c1 [2,5-Dimethylphenol]	5.86	5.95	5.74	5.83	5.95	5.83	5.72	> 200 µM
O=C(O)c1ccccc1 [Benzoic acid]	5.63	5.77	5.73	5.77	5.72	5.73	6.04	> 200 µM
CCCCC(CC)COP(=O)(OCC(CC)CCCC)OCC(CC)CCCC (configuration not stated) [Tris(2-ethylhexyl) phosphate]	5.94	5.99	5.94	5.96	5.92	5.34	5.78	> 200 µM
Cc1ccccc1O [2-Methylphenol]	5.98	5.9	5.94	5.82	5.92	5.94	5.81	> 200 µM
CC(O)CN(CCN(CC(C)O)CC(C)O)CC(C)O (configuration not stated) [N,N,N',N'-Tetrakis(2-Hydroxypropyl)ethylenediamine]	5.67	5.6	5.71	5.67	5.01	5.4	5.66	50 µM
O=C(N[C@H]1CN2CCC1CC2)c1ccc2c(c1)OCCO2	5.82	5.83	5.8	5.8	5.81	5.81	5.67	> 200 µM
